Experimental data taken from patent US11198687B2, “Heteroaryl allosteric modulators of nicotinic acetylcholine receptors” (Merck Sharp & Dohme Corp., priority 2017, dated 2021).
Where two headings read alike, the source gives them in different places.

Target: human α7 nAChR (Homo sapiens, UniProt P36544)
Assay: Automated patch-clamp electrophysiology functional assay (Assay A)
Type: cell-based
Details: IonFlux HT whole-cell population patch, HEK cell line stably expressing human RIC-3 and human α7, 40 μM acetylcholine
How it was run: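 Whole-cell population patch clamp at room temperature on HEK cells stably expressing human α7 and RIC-3, held at −60 mV. Compounds tested at three ascending concentrations per recording, with or without 40 μM acetylcholine; currents quantified relative to an initial 1 s 40 μM acetylcholine response; EC50 from concentration series.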

human α7 nAChR, sequence (P36544 23-502): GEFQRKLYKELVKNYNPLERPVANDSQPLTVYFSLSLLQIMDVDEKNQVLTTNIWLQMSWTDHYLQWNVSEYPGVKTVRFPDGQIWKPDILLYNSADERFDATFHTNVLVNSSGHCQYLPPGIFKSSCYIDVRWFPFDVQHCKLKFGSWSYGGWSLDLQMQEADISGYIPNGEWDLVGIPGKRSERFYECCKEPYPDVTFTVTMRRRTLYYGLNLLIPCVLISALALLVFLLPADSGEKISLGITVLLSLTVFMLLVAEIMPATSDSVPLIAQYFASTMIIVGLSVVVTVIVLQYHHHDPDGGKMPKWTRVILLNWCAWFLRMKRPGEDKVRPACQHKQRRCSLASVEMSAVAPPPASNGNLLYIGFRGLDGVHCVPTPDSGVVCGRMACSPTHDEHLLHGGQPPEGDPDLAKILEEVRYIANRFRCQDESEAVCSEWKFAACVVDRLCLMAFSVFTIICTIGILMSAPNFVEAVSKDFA

Row | SMILES | EC50 (read-out: α7 nAChR EC50) [µM] | EC50 (read-out: α7 nAChR Potency) [µM]
1 | COc1ccc(Cl)cc1-c1noc([C@@H]2[C@@H](c3ccc(S(N)(=O)=O)cn3)C2(C)C)n1 [Example E4, 6-{(1R,3R)-3-[3-(5-Chloro-2-methoxyphenyl)-1,2,4-oxadiazol-5-yl]-2,2-dimethylcyclopropyl}pyridine-3-sulfonamide] | 5.4 | 5 to 50
2 | CC1(C)[C@@H](c2ccc(S(N)(=O)=O)cn2)[C@@H]1c1nc(C2CC2)no1 [Example F8, 6-[(1S,3S)-3-(3-Cyclopropyl-1,2,4-oxadiazol-5-yl)-2,2-dimethylcyclopropyl]pyridine-3-sulfonamide] | 1.4 | 0.5 to 5
3 | CC(C)(C)c1noc([C@H]2[C@H](c3ccc(S(N)(=O)=O)cn3)C2(C)C)n1 [Example F9, 6-[(1S,3S)-3-(3-tert-Butyl-1,2,4-oxadiazol-5-yl)-2,2-dimethylcyclopropyl]pyridine-3-sulfonamide] |  | 0.5 to 5
4 | CC1(C)[C@@H](c2ccc(S(N)(=O)=O)cn2)[C@@H]1c1nc(-c2ccccc2)no1 [Example F10, 6-[(1S,3S)-2,2-Dimethyl-3-(3-phenyl-1,2,4-oxadiazol-5-yl)cyclopropyl]pyridine-3-sulfonamide] | 1.1 | 0.5 to 5
5 | CC1(C)[C@@H](c2ccc(S(N)(=O)=O)cn2)[C@@H]1c1nc(-c2cncc(F)c2)no1 [Example F11, 6-{(1S,3S)-3-[3-(5-Fluoropyridin-3-yl)-1,2,4-oxadiazol-5-yl]-2,2-dimethylcyclopropyl}pyridine-3-sulfonamide] | 3.4 | 0.5 to 5
6 | CC1(C)[C@@H](c2ccc(S(N)(=O)=O)cn2)[C@@H]1c1nc(C2CC(F)(F)C2)no1 [Example F12, 6-{(1S,3S)-3-[3-(3,3-Difluorocyclobutyl)-1,2,4-oxadiazol-5-yl]-2,2-dimethylcyclopropyl}pyridine-3-sulfonamide] | 1.9 | 0.5 to 5
7 | CC1(C)[C@@H](c2ccc(S(N)(=O)=O)cn2)[C@@H]1c1nc(C2CCC2)no1 [Example F13, 6-[(1S,3S)-3-(3-Cyclobutyl-1,2,4-oxadiazol-5-yl)-2,2-dimethylcyclopropyl]pyridine-3-sulfonamide] |  | 0.5 to 5
8 | CC(C)c1noc([C@H]2[C@H](c3ccc(S(N)(=O)=O)cn3)C2(C)C)n1 [Example F14, 6-{(1S,3S)-2,2-Dimethyl-3-[3-(propan-2-yl)-1,2,4-oxadiazol-5-yl]cyclopropyl}pyridine-3-sulfonamide] | 1.6 | 0.5 to 5

Results, then the compound that gave them:

Row | EC50 (read-out: α7 nAChR EC50) [µM] | EC50 (read-out: α7 nAChR Potency) [µM] | SMILES
9 | 1.3 | 0.5 to 5 | CC1(C)[C@H](c2ccc(S(N)(=O)=O)cn2)[C@H]1c1nc(-c2ccc(F)cc2F)no1 [Example E5, 6-{(1R,3R)-3-[3-(2,4-Difluorophenyl)-1,2,4-oxadiazol-5-yl]-2,2-dimethylcyclopropyl}pyridine-3-sulfonamide]
10 |  | 0.5 to 5 | CC1(C)[C@H](c2ccc(S(N)(=O)=O)cn2)[C@H]1c1nc(-c2cccc(C(F)(F)F)c2)no1 [Example E6, 6-[(1R,3R)-2,2-Dimethyl-3-{3-[3-(trifluoromethyl)phenyl]-1,2,4-oxadiazol-5-yl}cyclopropyl]pyridine-3-sulfonamide]
11 |  | 0.5 to 5 | CC1(C)[C@H](c2ccc(S(N)(=O)=O)cn2)[C@H]1c1nc(C2CCCCC2)no1 [Example E7, 6-[(1R,3R)-3-(3-Cyclohexyl-1,2,4-oxadiazol-5-yl)-2,2-dimethylcyclopropyl]pyridine-3-sulfonamide]
12 | 1.1 | 0.5 to 5 | CC1(C)[C@@H](c2ccc(S(N)(=O)=O)cn2)[C@@H]1c1nc(-c2cccc(F)c2)no1 [Example F1, 6-{(1S,3S)-3-[3-(3-Fluorophenyl)-1,2,4-oxadiazol-5-yl]-2,2-dimethylcyclopropyl}pyridine-3-sulfonamide]
13 | 3.3 | 0.5 to 5 | CC1(C)[C@@H](c2ccc(S(N)(=O)=O)cn2)[C@@H]1c1nc(-c2cncc(C(F)(F)F)c2)no1 [Example F2, 6-[(1S,3S)-2,2-Dimethyl-3-{3-[5-(trifluoromethyl)pyridin-3-yl]-1,2,4-oxadiazol-5-yl}cyclopropyl]pyridine-3-sulfonamide]
14 | 0.34 | 0.1 to 0.5 | CC1(C)[C@@H](c2ccc(S(N)(=O)=O)cn2)[C@@H]1c1nc(C2CCCC2)no1 [Example F3, 6-[(1S,3S)-3-(3-Cyclopentyl-1,2,4-oxadiazol-5-yl)-2,2-dimethylcyclopropyl]pyridine-3-sulfonamide]
15 |  | 0.5 to 5 | COc1ccc(Cl)cc1-c1noc([C@H]2[C@H](c3ccc(S(N)(=O)=O)cn3)C2(C)C)n1 [Example F4, 6-{(1S,3S)-3-[3-(5-Chloro-2-methoxyphenyl)-1,2,4-oxadiazol-5-yl]-2,2-dimethylcyclopropyl}pyridine-3-sulfonamide]
16 | 1.7 | 0.5 to 5 | CC1(C)[C@@H](c2ccc(S(N)(=O)=O)cn2)[C@@H]1c1nc(-c2ccc(F)cc2F)no1 [Example F5, 6-{(1S,3S)-3-[3-(2,4-Difluorophenyl)-1,2,4-oxadiazol-5-yl]-2,2-dimethylcyclopropyl}pyridine-3-sulfonamide]
17 | 2.7 | 0.5 to 5 | CC1(C)[C@@H](c2ccc(S(N)(=O)=O)cn2)[C@@H]1c1nc(-c2cccc(C(F)(F)F)c2)no1 [Example F6, 6-[(1S,3S)-2,2-Dimethyl-3-{3-[3-(trifluoromethyl)phenyl]-1,2,4-oxadiazol-5-yl}cyclopropyl]pyridine-3-sulfonamide]
18 | 1.5 | 0.5 to 5 | CC1(C)[C@@H](c2ccc(S(N)(=O)=O)cn2)[C@@H]1c1nc(CC2CC2)no1 [Example F7, 6-{(1S,3S)-3-[3-(Cyclopropylmethyl)-1,2,4-oxadiazol-5-yl]-2,2-dimethylcyclopropyl}pyridine-3-sulfonamide]
